For test [1], the target named is FLNA VAKGL pentapeptide (Bn-VAKGL) (Homo sapiens, UniProt P21333). Description: FITC-NLX-based FLNA screening assay (FLNA peptide binding assay).
Procedure: Streptavidin-coated 96-well plates (Reacti-Bind™ NeutrAvidin™ High binding capacity coated 96-well plate, Pierce-ENDOGEN) are washed three times with 200 μl of 50 mM Tris HCl, pH 7.4 according to the manufacturer's recommendation.
Bn-VAKGL peptide (0.5 mg/plate) is dissolved in 50 μl DMSO and then added to 4450 μl of 50 mM Tris HCl, pH 7.4, containing 100 mM NaCl and protease inhibitors (binding medium) as well as 500 μl superblock in PBS (Pierce-ENDOGEN) [final concentration for DMSO: 1%].
The washed streptavidin-coated plates are contacted with 5 μg/well of Bn-VAKGL (100 μl) for 1 hour (incubated) with constant shaking at 25° C. [50 μl of Bn-VAKGL peptide solution from B+50 μl binding medium, final concentration for DMSO: 0.5%]. At the end of the incubation, the plate is washed three times with 200 μl of ice-cold 50 mM Tris HCl, pH 7.4.
The final assay volume is 100 μl. At the end of incubation, the plate is washed twice with 100 μl of ice-cold 50 mM Tris, pH 7.4. The signal, bound-FITC-NLX is detected using a DTX-880 multi-mode plate reader (Beckman).
To screen the medicinal chemistry analogs (new compounds), each compound solution (1 μl) is added to the Bn-VAKGL coated streptavidin plate with 50 μl/well of binding medium followed immediately with addition of 50 μl of FITC-NLX (total assay volume/well is 100 μl). The final screening concentration for each compound is 10 μM. […]
The target of the next test is T1, mu opiate receptor (MOR) (Rattus norvegicus, UniProt P33535).
T1 construct: from tissue; host or cells: rat striatal membrane preparation
Put plainly: MOR agonist activity using [35S]GTPγS binding assay in striatal membranes. The format is biochemical. (GTPγS resists hydrolysis and so accumulates on activated G proteins.)

T1 sequence (P33535 whole entry): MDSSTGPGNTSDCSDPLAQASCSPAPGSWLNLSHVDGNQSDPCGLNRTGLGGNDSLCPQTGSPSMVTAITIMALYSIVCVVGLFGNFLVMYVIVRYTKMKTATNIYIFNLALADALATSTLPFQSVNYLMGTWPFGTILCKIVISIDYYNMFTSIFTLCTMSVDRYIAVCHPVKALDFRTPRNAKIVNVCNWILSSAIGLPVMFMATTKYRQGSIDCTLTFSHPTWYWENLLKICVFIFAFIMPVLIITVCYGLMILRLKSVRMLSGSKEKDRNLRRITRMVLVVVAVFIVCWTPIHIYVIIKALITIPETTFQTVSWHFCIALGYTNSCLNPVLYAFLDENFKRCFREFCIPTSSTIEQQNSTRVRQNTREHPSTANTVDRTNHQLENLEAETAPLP

As usually defined, the inhibition is the percentage by which the read-out fell short of the control. Regarding `O=C(c1ccc([N+](=O)[O-])cc1)N1CCC2(CC1)OCCN2S(=O)(=O)c1ccc([N+](=O)[O-])cc1` [Compound C0033], in test [1] (read-out: Percent inhibition of FITC-NLX binding, 0.1 μM), the inhibition at 0.1 µM worked out at 48.4%. In addition, in test [1] (read-out: Percent inhibition of FITC-NLX binding, 1 μM), the inhibition at 1 µM came out at 51.3%. On mu opiate receptor (MOR) (0.1 μM compound, striatal membranes), the “MOR agonist activity, [35S]GTPγS binding to Gαo, FLNA-binding compound as agonist 0.1 μM” value is on record as 134.5%. Further, the “MOR agonist activity, [35S]GTPγS binding to Gαo, 1 μM + BFNA” value on mu opiate receptor (MOR) (1 μM compound + 1 μM β-funaltrexamine) is reported as 76.6%. Besides, the “MOR agonist activity, [35S]GTPγS binding to Gαo, FLNA-binding compound as agonist 1 μM” value at mu opiate receptor (MOR) (1 μM compound, striatal membranes) came to 186.4%.

Source of the values: patent US8580809B2, “Filamin A-binding anti-inflammatory analgesic” (Pain Therapeutics, Inc., priority 2009, dated 2013).
